Entries after “also recorded” stand apart in the source; their conditions may differ.
Columns and labels:
Type in all cases: in vivo, mouse
C57BL/6J mice = assay: Blood count recovery after myelosuppressive 5FU chemotherapy
Method: The inventors used 5FU (250 mg/kg, 1 i.p.) for C57BL/6J mice, or 5FU 150 mg/kg (1 i.p.) for mice that had been previously transplanted. To assess blood count recovery, the inventors collected peripheral blood (50 μl) into EDTA-coated capillary tubes (Fisher Scientific). Differential blood counts were measured using an automated Bayer ADVIA 120 Multispecies Hematology Analyzer calibrated for murine blood (Bayer HealthCare).
The inventors treated cohorts of mice with 5FU (250 mg/kg) on day 0 and then with either the TGFβ-neutralizing antibody 1D11 (I) (10 mg/kg) or a non-targeted control antibody 13C4 (C) (10 mg/kg) on days 5, 7 and 9. The 1D11 and 13C4 antibodies were generously provided by Genzyme Corp., Framingham, Mass., USA. Mice were treated with 5FU (250 mg/kg) on day 0 and then received either LY364947 (1 mg/kg, i.p.) or an equal volume of PBS six times over a period of 9 days. Hematopoietic reconstitution was followed by monitoring peripheral blood counts and multidimensional flow cytometry on bone marrow and spleen cells, as indicated.

LKS+ HSPCs = assay: Multidimensional flow cytometry of BM HSPC regeneration after 5FU; conditions: 1 mg/kg IP 6 times over 9 days, vs control
Method: (§1) Mice were killed by CO2 asphyxiation and femur, tibia and humeri were dissected free of muscle and tendons and then crushed in DMEM using a mortar and pestle. The resulting cell suspension was filtered through a 70-μm filter and washed in PEB (2 mM EDTA, 0.2% BSA in PBS pH 7.4). Spleens were isolated and then minced prior to grinding through a 70-μm filter to generate single cell suspensions. Lineage negative (Lin^−) cells were purified using a biotinylated lineage cell detection cocktail (Miltenyi Biotec). Lineage depleted cells were then stained with streptavidin-Qdot 605 (eBioscience), Horizon V450-conjugated anti-CD117 (BD Biosciences), PECy7-conjugated Sca-1 (BioLegend), Alexa700-conjugated CD34 (BD Biosciences), APC-conjugated CD135 (Flk2) (BioLegend), and PerCP/Cy5.5-conjugated CD16/32 (FcR). Hematopoietic populations were identified as following: LT-HSCs, LKS^+ CD34^−Flk2^−; ST-HSCs, LKS^+ CD34^+ Flk2^−; MPPs, LKS^+ CD34^+ Flk2^+; CMPs, LKS^− CD34^+ FcRlow; GMPs, LKS^− CD34^+ FcR^+; and MEPs, LKS^− CD34^− FcR^− MEPs. DAPI was used to exclude dead cells during flow cytometric analysis. […] The cell cycle status of LKS^+SLAM cells was analyzed using this same strategy. Analysis gates were set based upon the fluorescence minus one (FMO) fluorophore. […]

[1] = system: LKS+ HSPCs and LKS+SLAM cells; assay: Bi-dimensional cell cycle analysis of BM HSPCs after 5FU; conditions: D15 after 5FU, 1 mg/kg IP 6 times over 9 days; vs 5FU only
Method: as §1

[2] = 5FU 250 mg/kg D0, 1 mg/kg IP 6 times over 9 days, vs PBS

For `c1ccc(-c2[nH]ncc2-c2ccnc3ccccc23)nc1` [LY364947], the PLT recovery (C57BL/6J mice; [2]) was “faster”, the WBC recovery (C57BL/6J mice; [2]) was “faster” and the blood counts recovery (C57BL/6J mice; after 5FU, vs vehicle control) was “recovered blood counts more rapidly”. For the same compound, the “expansion of LKS+SLAM cells” value (LKS+ HSPCs) was “greater expansion” and the “cycling of LKS+ and LKS+SLAM cells” value [1] was “prolonged cycling; also recorded: persisted in cycle”.

Source: US9782452B2, “Methods for stimulating hematopoietic recovery by inhibiting TGFβ signaling” (Cornell University, priority 2011, dated 2017)
